Data from US20250002489A1, “BIFUNCTIONAL COMPOUNDS FOR DEGRADING ITK VIA UBIQUITIN PROTEOSOME PATHWAY” (NURIX THERAPEUTICS, INC., priority 2021, published 2025).

Molecular target: T1, ITK (Jurkat or Molt4 cells) (Homo sapiens, UniProt Q08881)
T1 construct: either human Jurkat (Clone E6-1 ATCC TIB-152) or Motl4 (ATCC CRL-1552), were plated; endogenous in cells; host or cells: Jurkat Clone E6-1 (ATCC TIB-152) or Molt4 (ATCC CRL-1552)
T1 sequence (Q08881 1-620): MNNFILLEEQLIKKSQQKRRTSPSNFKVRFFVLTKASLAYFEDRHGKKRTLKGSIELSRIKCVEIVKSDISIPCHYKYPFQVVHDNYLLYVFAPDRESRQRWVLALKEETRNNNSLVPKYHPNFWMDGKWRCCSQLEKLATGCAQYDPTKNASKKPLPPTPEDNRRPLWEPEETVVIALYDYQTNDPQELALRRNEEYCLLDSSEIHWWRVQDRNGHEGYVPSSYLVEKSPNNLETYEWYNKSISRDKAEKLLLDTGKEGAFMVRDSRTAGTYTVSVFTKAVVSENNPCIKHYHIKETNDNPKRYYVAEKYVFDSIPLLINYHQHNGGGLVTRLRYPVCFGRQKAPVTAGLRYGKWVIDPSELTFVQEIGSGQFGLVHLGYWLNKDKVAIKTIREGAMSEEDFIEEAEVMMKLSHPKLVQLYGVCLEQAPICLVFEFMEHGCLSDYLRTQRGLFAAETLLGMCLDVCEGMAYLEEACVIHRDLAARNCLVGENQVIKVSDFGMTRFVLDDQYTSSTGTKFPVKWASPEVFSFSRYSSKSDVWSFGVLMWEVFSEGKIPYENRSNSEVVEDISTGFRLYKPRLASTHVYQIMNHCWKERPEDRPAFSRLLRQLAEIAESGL
Assay: ITK Degradation MSD (Meso Scale Discovery) Assay
Assay type: cell-based
Conditions: 4 or 6 hrs incubation; for DC50: best fit IC50 used as DC50
Procedure: Compound dilution series (7-point, 5-fold dilutions in DMSO, rows B—H with replicate in Column 1/2, 3/4, 5/6, 7, and 8 at 2000× the final required concentrations were prepared in 96-well plate (Falcon, cat. no. 353077). Row A, Column 1-8 were control DMSO. The 2000× solutions ranged from 2 mM to 128 nM (final assay concentration range 1 μM to […]). The 2000×solutions were added to cells in 10 μL volume, for a final DMSO concentration of 0.5% and final assay compound concentration of 1×. For the cells, either human Jurkat (Clone E6-1 ATCC TIB-152) or Motl4 (ATCC CRL-1552), were plated at 1×10^6 cells/mL, 100 μL/well ([…]) in complete RPMI (10% FBS, 1% L-glutamine). The cells were incubated with compounds 26-29 for 4 or 6 hrs at 32° C./6% CO2.
Following incubation, plates were centrifuged at 1200 rpm for 5 min. Supernatant was removed and 50 μL of cell lysis buffer (MSD Tris lysis buffer (R60TX), complete Mini EDTA-free protease inhibitor (Sigma 11836170001), Protease Inhibitor Cocktail (Sigma, P2714), Phosphatase Inhibitor Cocktail 2 and 3 (Sigma, P5726 and P0044), Benzonase (Sigma, E1014)) was added to each well. Plate was sealed and shook at 4° C. for 30 min. Plate was centrifuged and 45 μL was removed for plate assay.
Assay plate preparation: Meso Scale Discovery (MSD) multi-array sm spot 96-well plates (Goat anti-Rabbit L^45-RA), were blocked with 3% BSA blocking buffer (3% Bovine Serum Albumin (Sigma A3059)+TBS 0.2% Tween-20) for one hour with gentle rocking at room temperature. Plate was then washed with 200 μL of 1×TBST (TBS 0.2% Tween-20) three times. After the last wash, all liquid was removed and 50 μL per well of capture antibody (abcam ITK Y402-ab32507) was added to plate at a 1:1000 dilution in blocking buffer (see above). Plate was sealed and rocked at room temperature for 2 hrs. Plate was then washed three times with 200 μL of 1×TBST. After the last wash, all liquid was removed and 45 μL of cell lysate (from above) was added to plate. Plate was sealed and rocked overnight at 4° C. The next day, cell lysates were removed, and assay plate was washed three times with 200 μL of 1×TBST. After the last wash, liquid was removed and detection antibody (CST ITK (2F12) #2380) was added at 50 μL per well at a dilution of 1:1000 in blocking buffer. Plate was sealed and rocked at room temperature for 2 hrs. Plate was washed three times with 200 μL of 1×TBST. After the last wash, all liquid was removed, MSD […] sulfo tag (R32AC-1) was diluted to 1:1000 in blocking buffer. 50 μL was added to each well on the plate. Plate was sealed and incubated at room temperature for one hour. Plate was washed three times with 200 μL of 1×TBST. After last wash, all liquid was removed and 150 μL of 1×MSD Read Buffer T (R92PC) was then added to each well for ECL read out.
For reading ECL signal, plate was read on a Meso Scale Discovery (MSD) MESO Sector S 600 plate reader. Percent ITK was then calculated as described below.
Percent ITK remaining per sample was calculated as follows: […]
Using Graphpad Prism, % ITK remaining values were plotted as a function of compound concentration. To determine DC50 and Dmax values, resulting curves were fit to the Prism curve-fitting equation “log(inhibitor) vs response−Variable slope (four parameters)” (reported best fit value IC50 used as DC50).

Row | Dmax [%] | DC50 [nM] | Structure (SMILES)
1 | 94.5 | 27.9 | Cc1ncsc1-c1ccc(CNC(=O)[C@@H]2C[C@@H](O)CN2C(=O)[C@@H](NC(=O)C2(F)CC2)C(C)(C)C)c(OCCCC(=O)N2CC([C@@H](c3ccccc3)n3cc(NC(=O)c4n[nH]c5c4C[C@@H]4C(F)(F)[C@]4(C)C5)cn3)C2)c1 [Compound 33, (4aS,5aR)-5,5-difluoro-N-(1-((S)-(1-(4-(2-(((2S,4R)-1-((S)-2-(1-fluorocyclopropane-1-carboxamido)-3,3-dimethylbutanoyl)-4-hydroxypyrrolidine-2-carboxamido)methyl)-5-(4-methylthiazol-5-yl)phenoxy)butanoyl)azetidin-3-yl)(phenyl)methyl)-1H-pyrazol-4-yl)-5a-methyl-1,4,4a,5,5a,6-hexahydrocyclopropa[f]indazole-3-carboxamide]
2 | 94.6 | 1.27 | Cc1ncsc1-c1ccc(CNC(=O)[C@@H]2C[C@@H](O)CN2C(=O)[C@@H](NC(=O)C2(F)CC2)C(C)(C)C)c(OCCCCCCCC(=O)N2CC([C@@H](c3ccccc3)n3cc(NC(=O)c4n[nH]c5c4C[C@@H]4C(F)(F)[C@]4(C)C5)cn3)C2)c1 [Compound 20, (4aS,5aR)-5,5-difluoro-N-(1-((S)-(1-(8-(2-(((2S,4R)-1-((S)-2-(1-fluorocyclopropane-1-carboxamido)-3,3-dimethylbutanoyl)-4-hydroxypyrrolidine-2-carboxamido)methyl)-5-(4-methylthiazol-5-yl)phenoxy)octanoyl)azetidin-3-yl)(phenyl)methyl)-1H-pyrazol-4-yl)-5a-methyl-1,4,4a,5,5a,6-hexahydrocyclopropa[f]indazole-3-carboxamide]
3 | 63.4 | 20.2 | Cc1ncsc1-c1ccc(CNC(=O)[C@@H]2C[C@@H](O)CN2C(=O)[C@@H](NC(=O)C2(F)CC2)C(C)(C)C)c(OCC(=O)N2CC([C@@H](c3ccccc3)n3cc(NC(=O)c4n[nH]c5c4C[C@@H]4C(F)(F)[C@]4(C)C5)cn3)C2)c1 [Compound 32, (4aS,5aR)-5,5-difluoro-N-(1-((S)-(1-(2-(2-(((2S,4R)-1-((S)-2-(1-fluorocyclopropane-1-carboxamido)-3,3-dimethylbutanoyl)-4-hydroxypyrrolidine-2-carboxamido)methyl)-5-(4-methylthiazol-5-yl)phenoxy)acetyl)azetidin-3-yl)(phenyl)methyl)-1H-pyrazol-4-yl)-5a-methyl-1,4,4a,5,5a,6-hexahydrocyclopropa[f]indazole-3-carboxamide]
4 | 91 | 13.3 | Cc1ncsc1-c1ccc([C@H](C)NC(=O)[C@@H]2C[C@@H](O)CN2C(=O)[C@@H](NC(=O)c2ccc(N3CCC(CC(=O)N4CC([C@@H](c5ccccc5)n5cc(NC(=O)c6n[nH]c7c6C[C@@H]6C(F)(F)[C@]6(C)C7)cn5)C4)CC3)cn2)C(C)(C)C)cc1 [Compound 23, (4aS,5aR)-5,5-difluoro-N-(1-((S)-(1-(2-(1-(6-(((S)-1-((2S,4R)-4-hydroxy-2-(((S)-1-(4-(4-methylthiazol-5-yl)phenyl)ethyl)carbamoyl)pyrrolidin-1-yl)-3,3-dimethyl-1-oxobutan-2-yl)carbamoyl)pyridin-3-yl)piperidin-4-yl)acetyl)azetidin-3-yl)(phenyl)methyl)-1H-pyrazol-4-yl)-5a-methyl-1,4,4a,5,5a,6-hexahydrocyclopropa[f]indazole-3-carboxamide]
5 | 88.8 | 30.1 | Cc1ncsc1-c1ccc([C@H](C)NC(=O)[C@@H]2C[C@@H](O)CN2C(=O)[C@@H](NC(=O)c2ccc(N3CCC(C(=O)N4CC([C@@H](c5ccccc5)n5cc(NC(=O)c6n[nH]c7c6C[C@@H]6C(F)(F)[C@]6(C)C7)cn5)C4)CC3)cn2)C(C)(C)C)cc1 [Compound 31, (4aS,5aR)-5,5-difluoro-N-(1-((S)-(1-(1-(6-(((S)-1-((2S,4R)-4-hydroxy-2-(((S)-1-(4-(4-methylthiazol-5-yl)phenyl)ethyl)carbamoyl)pyrrolidin-1-yl)-3,3-dimethyl-1-oxobutan-2-yl)carbamoyl)pyridin-3-yl)piperidine-4-carbonyl)azetidin-3-yl)(phenyl)methyl)-1H-pyrazol-4-yl)-5a-methyl-1,4,4a,5,5a,6-hexahydrocyclopropa[f]indazole-3-carboxamide]

The remaining lines, values behind:

Row | Structure (SMILES) | Dmax [%] | DC50 [nM]
6 | CN[C@@H](C)C(=O)N[C@H](C(=O)N1CCC[C@H]1c1nc(C(=O)c2cccc(OCCCCCN3CC([C@@H](c4ccccc4)n4cc(NC(=O)c5n[nH]c6c5C[C@@H]5C(F)(F)[C@]5(C)C6)cn4)C3)c2)cs1)C1CCCCC1 [Compound 10, (4aS,5aR)—N-(1-((S)-(1-(5-(3-(2-((S)-1-((S)-2-cyclohexyl-2-((S)-2-(methylamino)propanamido)acetyl)pyrrolidin-2-yl)thiazole-4-carbonyl)phenoxy)pentyl)azetidin-3-yl)(phenyl)methyl)-1H-pyrazol-4-yl)-5,5-difluoro-5a-methyl-1,4,4a,5,5a,6-hexahydrocyclopropa[f]indazole-3-carboxamide] | – | 22.2
7 | CN[C@@H](C)C(=O)N[C@H](C(=O)N1C[C@@H](NC(=O)CCOCCOCCOCCOCCC(=O)N2CC([C@@H](c3ccccc3)n3cc(NC(=O)c4n[nH]c5c4C[C@@H]4C(F)(F)[C@]4(C)C5)cn3)C2)C[C@H]1C(=O)N[C@@H]1CCCc2ccccc21)C1CCCCC1 [Compound 2, (4aS,5aR)—N-(1-((S)-(1-(16-(((3S,5S)-1-((S)-2-cyclohexyl-2-((S)-2-(methylamino)propanamido)acetyl)-5-(((R)-1,2,3,4-tetrahydronaphthalen-1-yl)carbamoyl)pyrrolidin-3-yl)amino)-16-oxo-4,7,10,13-tetraoxahexadecanoyl)azetidin-3-yl)(phenyl)methyl)-1H-pyrazol-4-yl)-5,5-difluoro-5a-methyl-1,4,4a,5,5a,6-hexahydrocyclopropa[f]indazole-3-carboxamide] | – | 79.7
8 | CN[C@@H](C)C(=O)N[C@H](C(=O)N1CCCC1c1nc(C(=O)c2cccc(OCCOCCOCCOCCOCCOCCC(=O)N3CC([C@@H](c4ccccc4)n4cc(NC(=O)c5n[nH]c6c5C[C@@H]5C(F)(F)[C@]5(C)C6)cn4)C3)c2)cs1)C1CCCCC1 (stereo in doubt) [Compound 4, (4aS,5aR)—N-(1-((S)-(1-(1-(3-(2-((R)-1-((S)-2-cyclohexyl-2-((S)-2-(methylamino)propanamido)acetyl)pyrrolidin-2-yl)thiazole-4-carbonyl)phenoxy)-3,6,9,12,15-pentaoxaoctadecan-18-oyl)azetidin-3-yl)(phenyl)methyl)-1H-pyrazol-4-yl)-5,5-difluoro-5a-methyl-1,4,4a,5,5a,6-hexahydrocyclopropa[f]indazole-3-carboxamide] | – | 13.6
